Measured values published in paper PMC4450297, “Screening Active Compounds from Garcinia Species Native to China Reveals Novel Compounds Targeting the STAT/JAK Signaling Pathway” (BioMed Research International, 2015).

The compounds below were run on A498 (assay: Cell panel screen (CellTiter-Glo)). Conditions: A498 (listed under Lung), 20 micromolar, 72 hrs.
Format: cell-based, human
How it was run: (§1)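 ATCC lines in supplier media with 10% FBS, seeded and cultured overnight at 37° C., then exposed to compound at 20 μM final for 72 h. CellTiter-Glo luminescence; % growth inhibition relative to DMSO-treated controls after subtracting cell-free background.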

| Structure (SMILES) | Percent Inhibition [%] |
| --- | --- |
| CC(C)=CCc1c(O)cc2oc3ccc(O)cc3c(=O)c2c1O [Ge-1] | 54 |

What follows are compounds tested on J82 (assay: Cell panel screen (CellTiter-Glo)). Conditions: J82 (Urinary bladder), 20 micromolar, 72 hrs.
Format: cell-based, human
How it was run: as §1

| Structure (SMILES) | Percent Inhibition [%] |
| --- | --- |
| CC(C)=CCc1c(O)cc2oc3ccc(O)cc3c(=O)c2c1O [Ge-1] | 38 |

These compounds were tested on HPAF-II (assay: Cell panel screen (CellTiter-Glo)). Conditions: HPAF-II (Pancreas), 20 micromolar, 72 hrs.
Format: cell-based, human
How it was run: as §1

| Structure (SMILES) | Percent Inhibition [%] |
| --- | --- |
| CC(C)=CCc1c(O)cc2oc3ccc(O)cc3c(=O)c2c1O [Ge-1] | 28 |

Each compound was assayed on NCI-H2405 (assay: Cell panel screen (CellTiter-Glo)). Conditions: NCI-H2405 (Lung), 20 micromolar, 72 hrs.
Format: cell-based, human
How it was run: as §1

| Structure (SMILES) | Percent Inhibition [%] |
| --- | --- |
| CC(C)=CCc1c(O)cc2oc3ccc(O)cc3c(=O)c2c1O [Ge-1] | 7 |

These compounds were tested on NCI-H1623 (assay: Cell panel screen (CellTiter-Glo)). Conditions: NCI-H1623 (Lung), 20 micromolar, 72 hrs.
Format: cell-based, human
How it was run: as §1

| Structure (SMILES) | Percent Inhibition [%] |
| --- | --- |
| CC(C)=CCc1c(O)cc2oc3ccc(O)cc3c(=O)c2c1O [Ge-1] | 9 |

What follows are compounds tested on A704 (assay: Cell panel screen (CellTiter-Glo)). Conditions: A704 (Kidney), 20 micromolar, 72 hrs.
Format: cell-based, human
How it was run: as §1

| Structure (SMILES) | Percent Inhibition [%] |
| --- | --- |
| CC(C)=CCc1c(O)cc2oc3ccc(O)cc3c(=O)c2c1O [Ge-1] | 34 |

These compounds were tested on HCC1395 (assay: Cell panel screen (CellTiter-Glo)). Conditions: HCC1395 (Breast), 20 micromolar, 72 hrs.
Format: cell-based, human
How it was run: as §1

| Structure (SMILES) | Percent Inhibition [%] |
| --- | --- |
| CC(C)=CCc1c(O)cc2oc3ccc(O)cc3c(=O)c2c1O [Ge-1] | 55 |

The compounds below were run on C3A (assay: Cell panel screen (CellTiter-Glo)). Conditions: C3A (Liver), 20 micromolar, 72 hrs.
Format: cell-based, human
How it was run: as §1

| Structure (SMILES) | Percent Inhibition [%] |
| --- | --- |
| CC(C)=CCc1c(O)cc2oc3ccc(O)cc3c(=O)c2c1O [Ge-1] | 32 |

These compounds were tested on M059J (assay: Cell panel screen (CellTiter-Glo)). Conditions: M059J (Brain), 20 micromolar, 72 hrs.
Format: cell-based, human
How it was run: as §1

| Structure (SMILES) | Percent Inhibition [%] |
| --- | --- |
| CC(C)=CCc1c(O)cc2oc3ccc(O)cc3c(=O)c2c1O [Ge-1] | 24 |

Each compound was assayed on NCI-H2347 (assay: Cell panel screen (CellTiter-Glo)). Conditions: NCI-H2347 (Lung), 20 micromolar, 72 hrs.
Format: cell-based, human
How it was run: as §1

| Structure (SMILES) | Percent Inhibition [%] |
| --- | --- |
| CC(C)=CCc1c(O)cc2oc3ccc(O)cc3c(=O)c2c1O [Ge-1] | 32 |

What follows are compounds tested on CW-2 (assay: Cell panel screen (CellTiter-Glo)). Conditions: CW-2 (Colon), 20 micromolar, 72 hrs.
Format: cell-based, human
How it was run: as §1

| Structure (SMILES) | Percent Inhibition [%] |
| --- | --- |
| CC(C)=CCc1c(O)cc2oc3ccc(O)cc3c(=O)c2c1O [Ge-1] | 62 |

What follows are compounds tested on T47D (assay: Cell panel screen (CellTiter-Glo)). Conditions: T47D (Breast), 20 micromolar, 72 hrs.
Format: cell-based, human
How it was run: as §1

| Structure (SMILES) | Percent Inhibition [%] |
| --- | --- |
| CC(C)=CCc1c(O)cc2oc3ccc(O)cc3c(=O)c2c1O [Ge-1] | 45 |

The compounds below were run on CCF-STTG1 (assay: Cell panel screen (CellTiter-Glo)). Conditions: CCF-STTG1 (Brain), 20 micromolar, 72 hrs.
Format: cell-based, human
How it was run: as §1

| Structure (SMILES) | Percent Inhibition [%] |
| --- | --- |
| CC(C)=CCc1c(O)cc2oc3ccc(O)cc3c(=O)c2c1O [Ge-1] | 43 |

Each compound was assayed on RL95 (assay: Cell panel screen (CellTiter-Glo)). Conditions: RL95 (Uterus), 20 micromolar, 72 hrs.
Format: cell-based, human
How it was run: as §1

| Structure (SMILES) | Percent Inhibition [%] |
| --- | --- |
| CC(C)=CCc1c(O)cc2oc3ccc(O)cc3c(=O)c2c1O [Ge-1] | 37 |

What follows are compounds tested on HCC1569 (assay: Cell panel screen (CellTiter-Glo)). Conditions: HCC1569 (Breast), 20 micromolar, 72 hrs.
Format: cell-based, human
How it was run: as §1

| Structure (SMILES) | Percent Inhibition [%] |
| --- | --- |
| CC(C)=CCc1c(O)cc2oc3ccc(O)cc3c(=O)c2c1O [Ge-1] | 52 |

These compounds were tested on HT-1197 (assay: Cell panel screen (CellTiter-Glo)). Conditions: HT-1197 (Urinary bladder), 20 micromolar, 72 hrs.
Format: cell-based, human
How it was run: as §1

| Structure (SMILES) | Percent Inhibition [%] |
| --- | --- |
| CC(C)=CCc1c(O)cc2oc3ccc(O)cc3c(=O)c2c1O [Ge-1] | 50 |

The compounds below were run on ZR-75-30 (assay: Cell panel screen (CellTiter-Glo)). Conditions: ZR-75-30 (Breast), 20 micromolar, 72 hrs.
Format: cell-based, human
How it was run: as §1

| Structure (SMILES) | Percent Inhibition [%] |
| --- | --- |
| CC(C)=CCc1c(O)cc2oc3ccc(O)cc3c(=O)c2c1O [Ge-1] | 81 |

What follows are compounds tested on NCI-H1694 (assay: Cell panel screen (CellTiter-Glo)). Conditions: NCI-H1694 (Lung), 20 micromolar, 72 hrs.
Format: cell-based, human
How it was run: as §1

| Structure (SMILES) | Percent Inhibition [%] |
| --- | --- |
| CC(C)=CCc1c(O)cc2oc3ccc(O)cc3c(=O)c2c1O [Ge-1] | 49 |

These compounds were tested on SW13 (assay: Cell panel screen (CellTiter-Glo)). Conditions: SW13 (Adrenal gland), 20 micromolar, 72 hrs.
Format: cell-based, human
How it was run: as §1

| Structure (SMILES) | Percent Inhibition [%] |
| --- | --- |
| CC(C)=CCc1c(O)cc2oc3ccc(O)cc3c(=O)c2c1O [Ge-1] | 57 |

The compounds below were run on Panc 03.27 (assay: Cell panel screen (CellTiter-Glo)). Conditions: Panc 03.27 (Pancreas), 20 micromolar, 72 hrs.
Format: cell-based, human
How it was run: as §1

| Structure (SMILES) | Percent Inhibition [%] |
| --- | --- |
| CC(C)=CCc1c(O)cc2oc3ccc(O)cc3c(=O)c2c1O [Ge-1] | 43 |

These compounds were tested on C8166 (assay: Cell panel screen (CellTiter-Glo)). Conditions: C8166 (Leukemia), 20 micromolar, 72 hrs.
Format: cell-based, human
How it was run: as §1

| Structure (SMILES) | Percent Inhibition [%] |
| --- | --- |
| CC(C)=CCc1c(O)cc2oc3ccc(O)cc3c(=O)c2c1O [Ge-1] | 9 |

The compounds below were run on BT-474 (assay: Cell panel screen (CellTiter-Glo)). Conditions: BT-474 (Breast), 20 micromolar, 72 hrs.
Format: cell-based, human
How it was run: as §1

| Structure (SMILES) | Percent Inhibition [%] |
| --- | --- |
| CC(C)=CCc1c(O)cc2oc3ccc(O)cc3c(=O)c2c1O [Ge-1] | 30 |

These compounds were tested on NCI-H1770 (assay: Cell panel screen (CellTiter-Glo)). Conditions: NCI-H1770 (Lung), 20 micromolar, 72 hrs.
Format: cell-based, human
How it was run: as §1

| Structure (SMILES) | Percent Inhibition [%] |
| --- | --- |
| CC(C)=CCc1c(O)cc2oc3ccc(O)cc3c(=O)c2c1O [Ge-1] | 13 |

The compounds below were run on MSTO-211-H (assay: Cell panel screen (CellTiter-Glo)). Conditions: MSTO-211-H (Lung), 20 micromolar, 72 hrs.
Format: cell-based, human
How it was run: as §1

| Structure (SMILES) | Percent Inhibition [%] |
| --- | --- |
| CC(C)=CCc1c(O)cc2oc3ccc(O)cc3c(=O)c2c1O [Ge-1] | 44 |

What follows are compounds tested on Colo 205 (assay: Cell panel screen (CellTiter-Glo)). Conditions: Colo 205, 20 micromolar, 72 hrs.
Format: cell-based, human
How it was run: as §1

| Structure (SMILES) | Percent Inhibition [%] |
| --- | --- |
| CC(C)=CCc1c(O)cc2oc3ccc(O)cc3c(=O)c2c1O [Ge-1] | 29 |

The compounds below were run on HEC-1-A (assay: Cell panel screen (CellTiter-Glo)). Conditions: HEC-1-A (Uterus), 20 micromolar, 72 hrs.
Format: cell-based, human
How it was run: as §1

| Structure (SMILES) | Percent Inhibition [%] |
| --- | --- |
| CC(C)=CCc1c(O)cc2oc3ccc(O)cc3c(=O)c2c1O [Ge-1] | 26 |

What follows are compounds tested on Bel-7402 (assay: Cell panel screen (CellTiter-Glo)). Conditions: Bel-7402 (Liver), 20 micromolar, 72 hrs.
Format: cell-based, human
How it was run: as §1

| Structure (SMILES) | Percent Inhibition [%] |
| --- | --- |
| CC(C)=CCc1c(O)cc2oc3ccc(O)cc3c(=O)c2c1O [Ge-1] | 19 |

The compounds below were run on BT-549 (assay: Cell panel screen (CellTiter-Glo)). Conditions: BT-549 (Breast), 20 micromolar, 72 hrs.
Format: cell-based, human
How it was run: as §1

| Structure (SMILES) | Percent Inhibition [%] |
| --- | --- |
| CC(C)=CCc1c(O)cc2oc3ccc(O)cc3c(=O)c2c1O [Ge-1] | 20 |

Each compound was assayed on NCI-H524 (assay: Cell panel screen (CellTiter-Glo)). Conditions: NCI-H524 (Lung), 20 micromolar, 72 hrs.
Format: cell-based, human
How it was run: as §1

| Structure (SMILES) | Percent Inhibition [%] |
| --- | --- |
| CC(C)=CCc1c(O)cc2oc3ccc(O)cc3c(=O)c2c1O [Ge-1] | 42 |

Each compound was assayed on HGC-27 (assay: Cell panel screen (CellTiter-Glo)). Conditions: HGC-27 (Stomach), 20 micromolar, 72 hrs.
Format: cell-based, human
How it was run: as §1

| Structure (SMILES) | Percent Inhibition [%] |
| --- | --- |
| CC(C)=CCc1c(O)cc2oc3ccc(O)cc3c(=O)c2c1O [Ge-1] | 54 |

The compounds below were run on ChaGo-K-1 (assay: Cell panel screen (CellTiter-Glo)). Conditions: ChaGo-K-1 (Lung), 20 micromolar, 72 hrs.
Format: cell-based, human
How it was run: as §1

| Structure (SMILES) | Percent Inhibition [%] |
| --- | --- |
| CC(C)=CCc1c(O)cc2oc3ccc(O)cc3c(=O)c2c1O [Ge-1] | 44 |

Each compound was assayed on TCCSUP (assay: Cell panel screen (CellTiter-Glo)). Conditions: TCCSUP (Urinary bladder), 20 micromolar, 72 hrs.
Format: cell-based, human
How it was run: as §1

| Structure (SMILES) | Percent Inhibition [%] |
| --- | --- |
| CC(C)=CCc1c(O)cc2oc3ccc(O)cc3c(=O)c2c1O [Ge-1] | 28 |

These compounds were tested on NCI-H28 (assay: Cell panel screen (CellTiter-Glo)). Conditions: NCI-H28 (Lung), 20 micromolar, 72 hrs.
Format: cell-based, human
How it was run: as §1

| Structure (SMILES) | Percent Inhibition [%] |
| --- | --- |
| CC(C)=CCc1c(O)cc2oc3ccc(O)cc3c(=O)c2c1O [Ge-1] | 23 |

Each compound was assayed on HCC1937 (assay: Cell panel screen (CellTiter-Glo)). Conditions: HCC1937 (Breast), 20 micromolar, 72 hrs.
Format: cell-based, human
How it was run: as §1

| Structure (SMILES) | Percent Inhibition [%] |
| --- | --- |
| CC(C)=CCc1c(O)cc2oc3ccc(O)cc3c(=O)c2c1O [Ge-1] | 11 |

Each compound was assayed on HCC1599 (assay: Cell panel screen (CellTiter-Glo)). Conditions: HCC1599 (Breast), 20 micromolar, 72 hrs.
Format: cell-based, human
How it was run: as §1

| Structure (SMILES) | Percent Inhibition [%] |
| --- | --- |
| CC(C)=CCc1c(O)cc2oc3ccc(O)cc3c(=O)c2c1O [Ge-1] | 54 |

These compounds were tested on T98G (assay: Cell panel screen (CellTiter-Glo)). Conditions: T98G (Brain), 20 micromolar, 72 hrs.
Format: cell-based, human
How it was run: as §1

| Structure (SMILES) | Percent Inhibition [%] |
| --- | --- |
| CC(C)=CCc1c(O)cc2oc3ccc(O)cc3c(=O)c2c1O [Ge-1] | 46 |
